Data reported in ChEMBL document CHEMBL2150862, “Cyclopropyl-spiro-piperidines Useful as Sodium Channel Blockers: Patent Highlight” (ACS Med Chem Lett, 2012).

Target: Sodium channel protein type 9 subunit alpha (Homo sapiens, UniProt Q15858)
Experiment: Inhibition of Nav1.7 by cell-based FLIPR assay

Chain of Sodium channel protein type 9 subunit alpha (Q15858 whole entry): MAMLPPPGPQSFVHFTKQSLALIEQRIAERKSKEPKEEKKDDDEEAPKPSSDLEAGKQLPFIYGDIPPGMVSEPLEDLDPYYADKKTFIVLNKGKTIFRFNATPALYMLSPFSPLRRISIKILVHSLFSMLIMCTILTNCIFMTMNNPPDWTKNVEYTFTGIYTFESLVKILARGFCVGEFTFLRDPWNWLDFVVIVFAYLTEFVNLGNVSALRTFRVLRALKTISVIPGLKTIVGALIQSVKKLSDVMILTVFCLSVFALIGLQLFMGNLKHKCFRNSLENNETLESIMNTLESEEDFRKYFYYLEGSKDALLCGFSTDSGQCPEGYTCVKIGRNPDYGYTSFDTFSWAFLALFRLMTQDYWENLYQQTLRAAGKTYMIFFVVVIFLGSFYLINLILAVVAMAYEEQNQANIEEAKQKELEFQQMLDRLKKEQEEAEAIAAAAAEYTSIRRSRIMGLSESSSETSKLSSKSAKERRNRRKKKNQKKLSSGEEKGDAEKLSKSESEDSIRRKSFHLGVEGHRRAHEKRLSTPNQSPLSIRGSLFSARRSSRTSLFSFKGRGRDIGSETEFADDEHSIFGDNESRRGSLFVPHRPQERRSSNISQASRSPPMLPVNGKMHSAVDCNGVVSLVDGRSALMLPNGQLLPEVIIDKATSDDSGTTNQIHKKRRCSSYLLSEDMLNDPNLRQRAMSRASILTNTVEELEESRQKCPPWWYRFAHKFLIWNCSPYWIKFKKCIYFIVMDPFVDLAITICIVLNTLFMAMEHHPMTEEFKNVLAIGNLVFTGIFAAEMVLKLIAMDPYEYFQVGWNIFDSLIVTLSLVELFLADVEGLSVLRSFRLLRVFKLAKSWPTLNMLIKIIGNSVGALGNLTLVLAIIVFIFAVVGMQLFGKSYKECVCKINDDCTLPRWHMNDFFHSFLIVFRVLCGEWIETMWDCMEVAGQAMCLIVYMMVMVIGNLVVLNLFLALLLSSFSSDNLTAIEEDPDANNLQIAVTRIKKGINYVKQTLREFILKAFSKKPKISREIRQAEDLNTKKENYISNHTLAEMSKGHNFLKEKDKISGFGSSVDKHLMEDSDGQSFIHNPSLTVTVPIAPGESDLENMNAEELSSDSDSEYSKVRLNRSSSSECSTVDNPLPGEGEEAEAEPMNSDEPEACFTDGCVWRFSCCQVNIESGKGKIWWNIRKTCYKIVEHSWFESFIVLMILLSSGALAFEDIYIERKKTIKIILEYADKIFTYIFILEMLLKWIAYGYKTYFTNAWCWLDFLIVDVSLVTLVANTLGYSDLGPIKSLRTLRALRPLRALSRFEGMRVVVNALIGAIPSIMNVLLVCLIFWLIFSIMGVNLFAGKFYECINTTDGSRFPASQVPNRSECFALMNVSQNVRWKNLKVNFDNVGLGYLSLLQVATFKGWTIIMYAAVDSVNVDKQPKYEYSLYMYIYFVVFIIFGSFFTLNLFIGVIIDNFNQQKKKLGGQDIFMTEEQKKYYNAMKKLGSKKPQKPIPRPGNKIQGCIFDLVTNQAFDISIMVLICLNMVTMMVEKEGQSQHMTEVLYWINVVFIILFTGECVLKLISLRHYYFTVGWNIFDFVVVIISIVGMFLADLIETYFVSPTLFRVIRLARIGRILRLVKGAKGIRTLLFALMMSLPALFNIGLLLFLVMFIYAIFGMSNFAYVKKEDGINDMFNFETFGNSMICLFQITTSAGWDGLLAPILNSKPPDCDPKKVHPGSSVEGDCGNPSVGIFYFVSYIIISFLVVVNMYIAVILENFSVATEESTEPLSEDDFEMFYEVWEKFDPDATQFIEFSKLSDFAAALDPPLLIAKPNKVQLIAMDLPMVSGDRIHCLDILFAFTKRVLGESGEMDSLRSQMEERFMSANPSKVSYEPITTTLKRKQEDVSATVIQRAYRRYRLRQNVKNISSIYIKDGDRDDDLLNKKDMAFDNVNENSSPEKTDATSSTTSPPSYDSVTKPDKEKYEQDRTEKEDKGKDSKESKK

IC50 [nM]	Compound
237	CN(C)c1cccc2c(C(=O)NC3CC34CCN(c3ccccc3)CC4)cccc12 (stereo unspecified)
188	O=C(NC1CC12CCN(c1ccccc1)CC2)c1ccc(F)c2ccccc12 (stereo unspecified)
98.3	CN(C)c1ccc(C(=O)NC2CC23CCN(c2ccccc2)CC3)c2ccccc12 (stereo unspecified)

More lines, now with the values behind:

Compound	IC50 [nM]
c1ccc(CN2CCC3(CC2)CC3CNc2ccccc2N2CCCCC2)cc1 (stereo unspecified)	291
CN(C)c1ccc(C(=O)NC2CC23CCN(c2cc(F)cc(F)c2)CC3)c2ccccc12 (stereo unspecified)	151
c1ccc(CC(NCC2CC23CCN(c2ccccc2)CC3)c2ccccc2)cc1 (stereo unspecified)	177
